Key:
S. aureus MN8 = type: cell-based, Staphylococcus aureus; details: 24 hours at 35° C.
[1] = tested on: TSST-1 production by Staphylococcus aureus MN8; type: cell-based; details: 24 hours at 35° C.

| Substance | Final [S. aureus] (S. aureus MN8) | TSST-1 [1] |
| --- | --- | --- |
| Laureth-4 | 4.57 × 10^9 CFU/ml | 531.8 ng/mL |
| PPG-5 Laureth-5 | 3.82 × 10^9 CFU/ml | 609.2 ng/mL |
| Steareth-2 | 5.76 × 10^9 CFU/ml | 680.7 ng/mL |
